Data published in the supplement of paper PMC10307832.

What was measured:
Test in all cases: relative viability (nuclei count vs DMSO), 5 days (fraction); higher = more cells survive
KN-93 + Palbociclib = compound: CN(C/C=C/C1=CC=C(C=C1)Cl)CC2=CC=CC=C2N(CCO)S(=O)(=O)C3=CC=C(C=C3)OC [KN-93] + CC(=O)c1c(C)c2cnc(Nc3ccc(N4CCNCC4)cn3)nc2n(C2CCCC2)c1=O [Palbociclib] (partner 0.5 µM)
How it was run: (§1)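 Medians of duplicate plates are given as relative viability. That measure is the nuclei count in treated wells divided by the count in vehicle wells. Counts were taken on 4× images of lung cancer cell lines in 1536-well plates, 5 days after pin-tool dosing the day after seeding with one drug alone or a fixed anchor-drug dose plus five library-drug doses (not always all listed) in √10 steps.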

KN-93 + Bortezomib = compound: CN(C/C=C/C1=CC=C(C=C1)Cl)CC2=CC=CC=C2N(CCO)S(=O)(=O)C3=CC=C(C=C3)OC [KN-93] + CC(C)C[C@H](NC(=O)[C@H](Cc1ccccc1)NC(=O)c1cnccn1)B(O)O [Bortezomib] (partner 0.002 µM)
How it was run: as §1

KN-93 + Foretinib = compound: CN(C/C=C/C1=CC=C(C=C1)Cl)CC2=CC=CC=C2N(CCO)S(=O)(=O)C3=CC=C(C=C3)OC [KN-93] + COc1cc2c(Oc3ccc(NC(=O)C4(C(=O)Nc5ccc(F)cc5)CC4)cc3F)ccnc2cc1OCCCN1CCOCC1 [Foretinib] (partner 0.25 µM)
How it was run: as §1

KN-93 + Pemetrexed = compound: CN(C/C=C/C1=CC=C(C=C1)Cl)CC2=CC=CC=C2N(CCO)S(=O)(=O)C3=CC=C(C=C3)OC [KN-93] + Nc1nc2[nH]cc(CCc3ccc(C(=O)N[C@@H](CCC(=O)O)C(=O)O)cc3)c2c(=O)[nH]1 [Pemetrexed] (partner 0.2 µM)
How it was run: as §1

KN-93 + Decitabine = compound: CN(C/C=C/C1=CC=C(C=C1)Cl)CC2=CC=CC=C2N(CCO)S(=O)(=O)C3=CC=C(C=C3)OC [KN-93] + Nc1ncn([C@H]2C[C@H](O)[C@@H](CO)O2)c(=O)n1 [Decitabine] (partner 2 µM)
How it was run: as §1

Cell Line	relative viability (KN-93 + Palbociclib; first compound 0.08 µM)	relative viability (KN-93 + Palbociclib; first compound 0.253 µM)	relative viability (KN-93 + Palbociclib; first compound 2.53 µM)	relative viability (KN-93 + Palbociclib; first compound 8 µM)	relative viability (KN-93 + Bortezomib; first compound 0.08 µM)	relative viability (KN-93 + Bortezomib; first compound 2.53 µM)	relative viability (KN-93 + Bortezomib; first compound 8 µM)	relative viability (KN-93 + Foretinib; first compound 0.08 µM)	relative viability (KN-93 + Foretinib; first compound 0.253 µM)	relative viability (KN-93 + Foretinib; first compound 2.53 µM)	relative viability (KN-93 + Foretinib; first compound 8 µM)	relative viability (KN-93 + Pemetrexed; first compound 0.08 µM)	relative viability (KN-93 + Pemetrexed; first compound 0.253 µM)	relative viability (KN-93 + Pemetrexed; first compound 2.53 µM)	relative viability (KN-93 + Pemetrexed; first compound 8 µM)	relative viability (KN-93 + Decitabine; first compound 0.08 µM)	relative viability (KN-93 + Decitabine; first compound 0.253 µM)	relative viability (KN-93 + Decitabine; first compound 2.53 µM)	relative viability (KN-93 + Decitabine; first compound 8 µM)	relative viability (KN-93 + Bortezomib; first compound 0.253 µM)
HCC-78	0.47	0.513	0.446	0.427	0.462	0.37	0.531	0.564	0.475	0.579	0.525	0.816	1.02	0.911	0.935	0.724	0.676	0.709	0.747	–
HCC-366	0.407	0.531	0.563	0.221	–	1.57	0.955	0.909	1.02	0.796	0.379	0.157	0.175	0.189	0.133	0.333	0.333	0.307	0.299	1.48
HCC-827	0.591	0.492	0.845	0.422	1.01	0.972	0.872	1.05	1.09	0.931	0.577	0.243	0.286	0.257	0.286	0.356	0.335	0.332	0.304	1.11
HOP-62	0.461	0.573	0.552	0.477	0.442	0.958	0.711	1.2	1.22	1.26	0.958	0.28	0.383	0.346	0.322	0.225	0.27	0.241	0.239	1.28
IA-LM	–	–	–	–	0.738	0.991	0.481	–	1.36	1.3	0.926	–	–	–	–	–	–	–	–	0.875
LK-2	0.775	1.12	0.834	0.559	–	–	–	1.16	1.58	1.48	1.15	0.275	0.273	0.288	0.2	0.276	0.293	0.315	0.278	–
NCI-H358	0.14	0.136	0.138	0.131	–	–	–	0.519	0.733	0.64	0.335	0.166	0.182	0.169	0.157	0.212	0.207	0.198	0.184	–
NCI-H522	1.1	1.31	1	0.81	–	–	–	–	–	–	–	1.02	0.987	1.29	0.779	0.699	0.625	0.7	0.707	–
NCI-H596	–	–	–	–	1.02	1.18	0.942	0.862	0.989	0.886	0.532	0.528	0.493	0.589	0.455	1.03	1.19	1.08	0.824	1.29
NCI-H727	0.606	–	0.67	0.655	0.66	0.785	0.391	1.04	0.945	0.863	0.553	–	–	–	–	0.795	–	0.816	0.827	0.853
